Test system: 188146-221-R-J1-PDC complex spheroid viability
Assay: Anticancer human tumor 188146-221-R-J1-PDC patient-derived colon adenocarcinoma cell line growth inhibition [POLQ]
Settings: for IC50: curve of first compound; for viability, T/C: stronger effect = lower value
Outline: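 PDC + HUVEC + MSC complex spheroids; POLQ inhibitors ± partner drugs; top conc. at/near clinical Cmax, else 10 microM (SN-38 1 microM), half-log dilutions; 37 degrees C, 5% CO2.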

[1] = second compound 0.0316 µM, first compound 0.0316 µM
[2] = second compound 0.0316 µM, first compound 0.1 µM
[3] = second compound 0.1 µM, first compound 0.0316 µM
[4] = second compound 0.1 µM, first compound 0.1 µM
[5] = second compound 0.316 µM, first compound 0.0316 µM
[6] = second compound 0.316 µM, first compound 0.1 µM
[7] = second compound 1 µM, first compound 0.0316 µM
[8] = second compound 1 µM, first compound 0.1 µM
[9] = second compound 3.16 µM, first compound 0.0316 µM
[10] = second compound 3.16 µM, first compound 0.1 µM
[11] = second compound 10 µM, first compound 0.0316 µM
[12] = second compound 10 µM, first compound 0.1 µM
[13] = second compound 0.0316 µM, first compound 0.316 µM
[14] = second compound 0.0316 µM, first compound 1 µM
[15] = second compound 0.0316 µM, first compound 3.16 µM
[16] = second compound 0.0316 µM, first compound 10 µM
[17] = second compound 0.1 µM, first compound 0.316 µM
[18] = second compound 0.1 µM, first compound 1 µM
[19] = second compound 0.1 µM, first compound 3.16 µM
[20] = second compound 0.1 µM, first compound 10 µM
[21] = second compound 0.316 µM, first compound 0.316 µM
[22] = second compound 0.316 µM, first compound 1 µM
[23] = second compound 0.316 µM, first compound 3.16 µM
[24] = second compound 0.316 µM, first compound 10 µM
[25] = second compound 1 µM, first compound 0.316 µM
[26] = second compound 1 µM, first compound 1 µM
[27] = second compound 1 µM, first compound 3.16 µM
[28] = second compound 1 µM, first compound 10 µM
[29] = second compound 3.16 µM, first compound 0.316 µM
[30] = second compound 3.16 µM, first compound 1 µM
[31] = second compound 3.16 µM, first compound 3.16 µM
[32] = second compound 3.16 µM, first compound 10 µM
[33] = second compound 10 µM, first compound 0.316 µM
[34] = second compound 10 µM, first compound 1 µM
[35] = second compound 10 µM, first compound 3.16 µM
[36] = second compound 10 µM, first compound 10 µM
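Also: spheroids exposed to compounds for seven days.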
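For viability, T/C in this document: 100% = DMSO vehicle control viability.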

Structure (SMILES): CC[C@@]1(O)C(=O)OCc2c1cc1n(c2=O)Cc2cc3c(CN(C)C)c(O)ccc3nc2-1 + Nc1ccc(C#CCN(C(=O)Cc2ncc(C(F)(F)F)cc2C(F)(F)F)c2ccc(F)cc2)nn1
- IC50 (second compound 0.0316 µM): > 100 nM
- IC50 (second compound 0.1 µM): > 100 nM
- IC50 (second compound 0.316 µM): > 100 nM
- IC50 (second compound 1 µM): > 100 nM
- IC50 (second compound 3.16 µM): > 100 nM
- IC50 (second compound 10 µM): > 100 nM
- viability, T/C (second compound 0.0316 µM, first compound 0.000316 µM): 89.7%
- viability, T/C (second compound 0.0316 µM, first compound 0.001 µM): 95.7%
- viability, T/C (second compound 0.0316 µM, first compound 0.00316 µM): 84.3%
- viability, T/C (second compound 0.0316 µM, first compound 0.01 µM): 101%
- viability, T/C [1]: 96.4%
- viability, T/C [2]: 73.5%
- viability, T/C (second compound 0.1 µM, first compound 0.000316 µM): 118%
- viability, T/C (second compound 0.1 µM, first compound 0.001 µM): 84.1%
- viability, T/C (second compound 0.1 µM, first compound 0.00316 µM): 95.1%
- viability, T/C (second compound 0.1 µM, first compound 0.01 µM): 100%
- viability, T/C [3]: 84.9%
- viability, T/C [4]: 74.9%
- viability, T/C (second compound 0.316 µM, first compound 0.000316 µM): 104%
- viability, T/C (second compound 0.316 µM, first compound 0.001 µM): 88.4%
- viability, T/C (second compound 0.316 µM, first compound 0.00316 µM): 101%
- viability, T/C (second compound 0.316 µM, first compound 0.01 µM): 97.5%
- viability, T/C [5]: 103%
- viability, T/C [6]: 69.5%
- viability, T/C (second compound 1 µM, first compound 0.000316 µM): 103%
- viability, T/C (second compound 1 µM, first compound 0.001 µM): 102%
- viability, T/C (second compound 1 µM, first compound 0.00316 µM): 90.5%
- viability, T/C (second compound 1 µM, first compound 0.01 µM): 86.4%
- viability, T/C [7]: 82.3%
- viability, T/C [8]: 68.2%
- viability, T/C (second compound 3.16 µM, first compound 0.000316 µM): 106%
- viability, T/C (second compound 3.16 µM, first compound 0.001 µM): 92.9%
- viability, T/C (second compound 3.16 µM, first compound 0.00316 µM): 95.1%
- viability, T/C (second compound 3.16 µM, first compound 0.01 µM): 89.3%
- viability, T/C [9]: 83%
- viability, T/C [10]: 80.1%
- viability, T/C (second compound 10 µM, first compound 0.000316 µM): 100%
- viability, T/C (second compound 10 µM, first compound 0.001 µM): 96.8%
- viability, T/C (second compound 10 µM, first compound 0.00316 µM): 98.9%
- viability, T/C (second compound 10 µM, first compound 0.01 µM): 98.3%
- viability, T/C [11]: 90.5%
- viability, T/C [12]: 66.2%

Structure (SMILES): COc1cc(C2c3cc4c(cc3C(OC3OC5COC(C)OC5C(O)C3O)C3COC(=O)C23)OCO4)cc(OC)c1O (stereo not drawn) + Nc1ccc(C#CCN(C(=O)Cc2ncc(C(F)(F)F)cc2C(F)(F)F)c2ccc(F)cc2)nn1
- IC50 (second compound 0.0316 µM): 597 nM
- IC50 (second compound 0.1 µM): 789 nM
- IC50 (second compound 0.316 µM): 582 nM
- IC50 (second compound 1 µM): 626 nM
- IC50 (second compound 3.16 µM): 625 nM
- IC50 (second compound 10 µM): 633 nM
- viability, T/C [1]: 87.2%
- viability, T/C [2]: 95.2%
- viability, T/C [13]: 61.4%
- viability, T/C [14]: 40.7%
- viability, T/C [15]: 24.9%
- viability, T/C [16]: 22.9%
- viability, T/C [3]: 89.5%
- viability, T/C [4]: 87.3%
- viability, T/C [17]: 65.9%
- viability, T/C [18]: 48.2%
- viability, T/C [19]: 27.7%
- viability, T/C [20]: 28.5%
- viability, T/C [5]: 97.1%
- viability, T/C [6]: 97.8%
- viability, T/C [21]: 66.3%
- viability, T/C [22]: 35.5%
- viability, T/C [23]: 25%
- viability, T/C [24]: 21.4%
- viability, T/C [7]: 97.5%
- viability, T/C [8]: 79.3%
- viability, T/C [25]: 67.6%
- viability, T/C [26]: 39.4%
- viability, T/C [27]: 24.6%
- viability, T/C [28]: 22.2%
- viability, T/C [9]: 100%
- viability, T/C [10]: 88.5%
- viability, T/C [29]: 64.2%
- viability, T/C [30]: 40.7%
- viability, T/C [31]: 27.1%
- viability, T/C [32]: 25%
- viability, T/C [11]: 86.8%
- viability, T/C [12]: 78.4%
- viability, T/C [33]: 58.8%
- viability, T/C [34]: 47.4%
- viability, T/C [35]: 25%
- viability, T/C [36]: 29%

Structure (SMILES): COc1cccc2c1C(=O)c1c(O)c3c(c(O)c1C2=O)CC(O)(C(=O)CO)CC3OC1CC(N)C(O)C(C)O1 (stereo not drawn) + Nc1ccc(C#CCN(C(=O)Cc2ncc(C(F)(F)F)cc2C(F)(F)F)c2ccc(F)cc2)nn1
- IC50 (second compound 0.0316 µM): 134 nM
- IC50 (second compound 0.1 µM): 103 nM
- IC50 (second compound 0.316 µM): 68.8 nM
- IC50 (second compound 1 µM): 80.6 nM
- IC50 (second compound 3.16 µM): 57.4 nM
- IC50 (second compound 10 µM): 62.1 nM
- viability, T/C [1]: 67.5%
- viability, T/C [2]: 57.8%
- viability, T/C [13]: 26.7%
- viability, T/C [14]: 5.37%
- viability, T/C [15]: 0.23%
- viability, T/C [16]: 0.7%
- viability, T/C [3]: 80.5%
- viability, T/C [4]: 48.3%
- viability, T/C [17]: 29.4%
- viability, T/C [18]: 5.02%
- viability, T/C [19]: 0.21%
- viability, T/C [20]: 0.47%
- viability, T/C [5]: 67.8%
- viability, T/C [6]: 40%
- viability, T/C [21]: 25%
- viability, T/C [22]: 9.55%
- viability, T/C [23]: 0.15%
- viability, T/C [24]: 0.48%
- viability, T/C [7]: 83.7%
- viability, T/C [8]: 36.7%
- viability, T/C [25]: 29.5%
- viability, T/C [26]: 5.88%
- viability, T/C [27]: 0.44%
- viability, T/C [28]: 0.58%
- viability, T/C [9]: 64.5%
- viability, T/C [10]: 34.2%
- viability, T/C [29]: 24.8%
- viability, T/C [30]: 7.19%
- viability, T/C [31]: 0.42%
- viability, T/C [32]: 0.9%
- viability, T/C [11]: 63.2%
- viability, T/C [12]: 38.7%
- viability, T/C [33]: 25.3%
- viability, T/C [34]: 5.04%
- viability, T/C [35]: 0.39%
- viability, T/C [36]: 1.33%

Structure (SMILES): Nc1ccn(C2OC(CO)C(O)C2(F)F)c(=O)n1 (stereo not drawn) + Nc1ccc(C#CCN(C(=O)Cc2ncc(C(F)(F)F)cc2C(F)(F)F)c2ccc(F)cc2)nn1
- IC50 (second compound 0.0316 µM): < 31.6 nM
- IC50 (second compound 0.1 µM): < 31.6 nM
- IC50 (second compound 0.316 µM): < 31.6 nM
- IC50 (second compound 1 µM): < 31.6 nM
- IC50 (second compound 3.16 µM): < 31.6 nM
- IC50 (second compound 10 µM): < 31.6 nM
- viability, T/C [1]: 27.5%
- viability, T/C [2]: 18%
- viability, T/C [13]: 17.3%
- viability, T/C [14]: 17.3%
- viability, T/C [15]: 17.6%
- viability, T/C [16]: 12.2%
- viability, T/C [3]: 33.5%
- viability, T/C [4]: 18%
- viability, T/C [17]: 18.8%
- viability, T/C [18]: 15.2%
- viability, T/C [19]: 15.3%
- viability, T/C [20]: 16.1%
- viability, T/C [5]: 32.9%
- viability, T/C [6]: 17.4%
- viability, T/C [21]: 15.9%
- viability, T/C [22]: 16.3%
- viability, T/C [23]: 16.4%
- viability, T/C [24]: 15.9%
- viability, T/C [7]: 30.1%
- viability, T/C [8]: 17.6%
- viability, T/C [25]: 18%
- viability, T/C [26]: 16.6%
- viability, T/C [27]: 19%
- viability, T/C [28]: 14.2%
- viability, T/C [9]: 27.4%
- viability, T/C [10]: 19.8%
- viability, T/C [29]: 15.3%
- viability, T/C [30]: 17.1%
- viability, T/C [31]: 16.6%
- viability, T/C [32]: 15.4%
- viability, T/C [11]: 40.4%
- viability, T/C [12]: 23.2%
- viability, T/C [33]: 20.3%
- viability, T/C [34]: 19.1%
- viability, T/C [35]: 19.4%
- viability, T/C [36]: 14.9%

Source: PubChem BioAssay AID1963851 (Molecular Pharmacology Branch, DTP, NCI, 2024)
